Experiment [1] addresses mutant cKIT (560-576 and V654A) in GIST430/654 cell line (Homo sapiens (Human), UniProt P10721, DEL560-576/V654A). Nature of the experiment: Cellular testing of cKIT mutant inhibitors: phospho-Y307-cKIT Luminex assay in GIST430/654 cells. In kind it is cell-based. The following applies: Table 1; cKIT autophosphorylation, compounds 45 min; read-out: GIST 430/654 IC50. A digest of the protocol: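 GIST430/654 cells carrying constitutively active cKIT (Δ560-576/V654A) were grown with 100 nM imatinib, then treated with serially diluted compound for 45 min. Lysates were captured on anti-total-cKIT Luminex beads overnight at 4 °C and probed for phospho-Y307-cKIT. IC50 was fitted from percent of 0.3% DMSO control.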

For a further experiment, the target named is c-Kit(V654A) (Homo sapiens, UniProt P10721, V654A). Nature of the experiment: c-Kit(V654A) assay. In kind it is biochemical. The following applies: Table 1; 200 μM ATP. In outline:
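Radiometric filter-binding read-out: after 3% phosphoric acid stop, peptide-incorporated 33P on filtermat scintillation-counted. Enzyme: human c-Kit V654A, residues 544–end, N-terminal GST fusion.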

mutant cKIT (560-576 and V654A) in GIST430/654 cell line, sequence (P10721 other isoform, or with tags, fused parts or gaps V654A/del 1-25/del 560-576 limits assumed): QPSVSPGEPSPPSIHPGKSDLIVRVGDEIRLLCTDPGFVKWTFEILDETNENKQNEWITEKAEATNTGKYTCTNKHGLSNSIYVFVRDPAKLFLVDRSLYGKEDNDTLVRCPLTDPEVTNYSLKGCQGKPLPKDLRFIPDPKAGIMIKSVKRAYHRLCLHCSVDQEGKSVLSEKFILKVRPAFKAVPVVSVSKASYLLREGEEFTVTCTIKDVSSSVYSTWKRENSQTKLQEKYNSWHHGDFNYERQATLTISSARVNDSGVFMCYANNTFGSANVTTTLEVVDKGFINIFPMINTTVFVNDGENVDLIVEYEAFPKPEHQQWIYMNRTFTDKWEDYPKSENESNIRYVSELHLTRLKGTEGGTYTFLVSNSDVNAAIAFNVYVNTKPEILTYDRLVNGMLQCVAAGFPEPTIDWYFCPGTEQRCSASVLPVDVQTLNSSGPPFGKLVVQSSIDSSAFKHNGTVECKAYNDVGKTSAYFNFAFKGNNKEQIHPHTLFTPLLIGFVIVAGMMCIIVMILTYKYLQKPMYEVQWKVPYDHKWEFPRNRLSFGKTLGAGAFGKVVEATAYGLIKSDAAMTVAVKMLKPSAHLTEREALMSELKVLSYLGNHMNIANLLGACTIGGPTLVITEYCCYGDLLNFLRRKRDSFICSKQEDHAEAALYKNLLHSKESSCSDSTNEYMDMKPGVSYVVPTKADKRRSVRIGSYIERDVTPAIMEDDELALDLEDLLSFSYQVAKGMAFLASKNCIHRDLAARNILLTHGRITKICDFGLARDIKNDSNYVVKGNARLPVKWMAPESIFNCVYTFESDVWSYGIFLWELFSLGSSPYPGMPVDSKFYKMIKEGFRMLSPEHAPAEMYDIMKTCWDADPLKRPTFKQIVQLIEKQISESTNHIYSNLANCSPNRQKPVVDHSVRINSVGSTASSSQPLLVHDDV

Turning to `COCCOc1cc2[nH]nc(-c3cc(-c4ccc(OCCN5CCOCC5)cc4)no3)c2cc1F` [A40, 5-fluoro-6-(2-methoxyethoxy)-3-(3-{4-[2-(morpholin-4-yl)ethoxy]phenyl}-1,2-oxazol-5-yl)-1H-indazole], the IC50 in experiment [1] amounted to 140 nM; on c-Kit(V654A), 2.7 nM.
As for `COCCOc1cc2[nH]nc(-c3cc(-c4ccc(N5CCN(C)CC5)cc4)no3)c2cc1F` [A37, 5-fluoro-6-(2-methoxyethoxy)-3-{3-[4-(4-methylpiperazin-1-yl)phenyl]-1,2-oxazol-5-yl}-1H-indazole], the IC50 in experiment [1] was determined as 79 nM; against c-Kit(V654A), 2 nM.
